“And” between values parts separate entries of the source, which are not always exact repeats. Equal entries are not always repeated. Where two headings read alike, the source gives them in different places.
Tests used:
[1] = test system: mouse primary cortical neurons; experiment: Axonal growth (MAP2 immunolabelling, axonal length); assay type: cell-based; conditions: vehicle control 165.96±90.18 μm
Description: Mouse primary cortical neurons were pre-incubated for 48 h with vehicle, 60 nM sAPPα (used as positive control) or different concentrations of Compound C. Then, cortical neurons were treated for 24 h with vehicle. Data are represented as % of vehicle control (Mean±SD).
Cortical neurons from embryonic day 16-17 are prepared from C57Bl6/J mouse fetuses, as described in Example I-1. After 96-h incubation, axonal length is recorded. Briefly, cells were washed with ice-cold PBS and fixed with cold methanol. Following fixation, cells are immunolabelled using a specific antibody detecting total MAP2 protein. Antibodies to MAP2 are excellent markers on neuronal cells, their axons and neuronal dendrites. For quantification of axonal length, six independent images of labelled cells are captured using an inverted microscope. Pictures of cells are analyzed using Neuron-J software and axonal length is recorded manually. A minimum of 100 independent neurons are treated. The data are expressed as mean axonal length (expressed in μm) (Mean±SD). Statistical differences between vehicle-treated cells and cells treated with compounds are determined using a t-test.

[2] = test system: mouse primary cortical neurons challenged with Aβ1-42 oligomers (AβO); experiment: AβO-induced neurotoxicity, test item added concomitantly (T0) or 3 h (T3) or 6 h (T6) after AβO, MTT assay; assay type: cell-based; conditions: for % of neuroprotection and anti-apoptotic effects / viability at 1 µM: 1000 nM
Description: Mouse primary cortical neurons were treated at 0 h (T0) with vehicle or 1 μM AβO, Different concentrations of Compound C or HNG (0.1 μM, used as positive control) were added concomitantly to AβO at 0 h (T0)), 3 h (T3) or 6 h (T6) after AβO. Then, cortical neurons were incubated for 24 h and cell viability was determined using the MTT assay (n=3 determinations per condition, 1 independent experiment). Data are represented as % of vehicle control (Mean±SD). […]
The aim of this study is to determine whether Compound C might present neuroprotective, anti-apoptotic and neuro-rescuing effects in in vitro AβO induced neuron death models. For that purpose, the neuro-protective effects of compound C at six concentrations were investigated using mouse primary cortical neurons challenged with Aβ1-42 oligomers (AβO) Compounds were added at different time points (concomitantly T0 with AβO and T3, or T6 after AβO) with the aim to identify rescuing effects or anti-apoptotic effects.
Cortical neurons from embryonic day 16-17 are prepared from C57Bl6/J mouse fetuses, as described in Example I-1.
Mouse cortical neurons were exposed for 24 h to 1.0 μM AβO. The AβO-induced neurotoxicity was evaluated using the MTT assay. […] (FIG. 4)
The percentage of neuroprotection and anti-apoptosis effects was defined as; (neuron viability of compound C group−neuron viability of toxin treated group)/(100−neuron viability of toxin treated group)×100%. The % of neuroprotection and anti-apoptotic effects of compound C at 1000 nM is 88.7%, 52.0%, 22.3%, at T0, T3, or T6, respectively. (FIG. 4) […]

[3] = test system: human iPSC-derived neurons challenged with Aβ1-42 oligomers (AβO); experiment: AβO-induced neuronal death in human iPSC-derived neurons, NSE ELISA assay; assay type: cell-based; conditions: 10000 nM; for viability at 10 µM: Homo sapiens, Neuron, read-out: cell viability
Description: iPSCs were treated at 0 h (T0) with vehicle or 1 μM AβO. Different concentrations of Compound C or 0.1 μM HNG (used as positive control) were added concomitantly to AβO at 0 h (T0), 3 h (T3) or 6 h (T6) after AβO. Then, were incubated for 24 h and cell viability was determined using the NSE ELISA assay (n=6 determinations per condition, 1 independent experiment), Data are represented as % of vehicle control (Mean±SD). […]
To determine whether compound C might rescue neuronal death in human iPSC-derived neurons challenged with Aβ1-42 oligomers (AβO). In this cellular model, AβO induce a dramatic neuronal death that could be monitored by the level of neuronal specific enolase (NSE) using a specific ELISA assay. Compound C will be added at different time points (concomitantly and after AMBO) with the aim to identify rescuing effects.
Cells (HIP-Neuronal progenitors, GlobalStem, Cat #GSC-4312, Lot #20010260) are plated in 96-well plates at a density of 60.000 cells per well and culture. Before experiments, cells are matured for five weeks and kept at 37° C. in a humidified 5% CO2 atmosphere.
Cells are incubated with vehicle or 1 μM AβO in the absence or presence of different concentrations (i.e. 10, 100, 1000 and 10000 nM) of Compound C added concomitantly to AβO (T0), 3 h after AβO (T3), or 6 h after AβO (T6). Cells are incubated for 24 h in a final volume of 100 μL per well. For positive control, cells are treated similarly in the presence of 0.1 μM HNG (i.e. S14G variant of humanin peptide). In addition, neuronal loss is monitored using the detection of neuronal specific enolase (NSE) by ELISA assay according to supplier's recommendations (CloneCloud, Cat #SEA537Hu). A total of three data points per experimental condition will be generated here. […]

[4] = test system: mouse primary cortical neurons challenged with different types toxins; assay type: cell-based; conditions: T3
[5] = test system: patients suffered from incurable diseases; experiment: Case reports of patients eating functional food containing SBC003; assay type: in vivo, human
Text: Compound C (tripentadecanoin) is a natural lipid which can be found in specific herbs, but can also be found in human/animal milk. The patients described in examples II suffered from incurable diseases without any efficient treatment have voluntarily requested the functional food which containing SBC003.

Structure (SMILES): CCCCCCCCCCCCCCC(=O)OCC(COC(=O)CCCCCCCCCCCCCC)OC(=O)CCCCCCCCCCCCCC [Compound C, tripentadecanoin]
- neuronal axon outgrowth (mean axonal length) ([1]; 1000 nM): 199.93±101.17 μm
- neuronal axon outgrowth (mean axonal length) ([1]; 10000 nM): 304.27±149.60 μm
- % of neuroprotection and anti-apoptotic effects ([2]; T0): 88.7%
- % of neuroprotection and anti-apoptotic effects ([2]; T3): 52.0%
- % of neuroprotection and anti-apoptotic effects ([2]; T6): 22.3%
- viability at 0.32 µM ([2]; Mus musculus, Primary cortical neuron, 320 nM, added 3 h after AβO (T3)): 65.3 ± 2.6%
- viability at 1 µM ([2]; Mus musculus, Primary cortical neuron, added 3 h after AβO (T3)): 76.6 ± 2.9%
- viability at 1 µM ([2]; Mus musculus, Primary cortical neuron, added 6 h after AβO (T6)): 62.4 ± 3.5%
- viability at 1 µM ([2]; Mus musculus, Primary cortical neuron, added concomitantly to AβO (T0)): 94.5 ± 4.6%
- % of neuroprotection and anti-apoptotic effects ([3]; T0): 53.7%
- % of neuroprotection and anti-apoptotic effects ([3]; T3): 90.8%
- % of neuroprotection and anti-apoptotic effects ([3]; T6): 78.9%
- viability at 10 µM ([3]; T0): 76.7 ± 2.7%
- viability at 10 µM ([3]; T3): 94.2 ± 7.1%
- viability at 10 µM ([3]; T6): 88.8 ± 1.3%
- anti-apoptotic and neuroprotective effects ([4]; Aβ1-42 fibrils, 10000 nM): 223%
- anti-apoptotic and neuroprotective effects ([4]; Aβ25-35 fibrils, 10000 nM): 32.1%
- anti-apoptotic and neuroprotective effects ([4]; alpha-synuclein fibrils, 1000 nM): 34.0%
- anti-apoptotic and neuroprotective effects ([4]; human alpha-synuclein oligomer-induced toxicity, 10000 nM): 45.8%
- anti-apoptotic and neuroprotective effects ([4]; human amylin fibrils, 1000 nM): 45.3%
- anti-apoptotic and neuroprotective effects ([4]; human amylin fibrils, 10000 nM): 52.6%
- anti-apoptotic and neuroprotective effects ([4]; human amylin oligomers, 1000 nM): 30.8%
- anti-apoptotic and neuroprotective effects ([4]; human amylin oligomers, 10000 nM): 37.3%
- anti-apoptotic and neuroprotective effects ([4]; human tau oligomer-induced toxicity, 10000 nM): 46.8%
- anti-apoptotic and neuroprotective effects ([4]; tau fibril-induced toxicity, 10000 nM): 23.1%
- serum creatinine, average level ([5]; female, chronic kidney failure, on treatment, before mean 9.21 mg/dl): 8.88 mg/dL
- serum creatinine ([5]; female, chronic kidney failure, single values on treatment, before mean 9.21 mg/dl, listed as SBC003): 8.88 mg/dL and 8.97 mg/dL and 8.55 mg/dL and 9.12 mg/dL
- time breathing by themself ([5]; person, ALS, ventilator, functional food containing SBC003 about 10 mg/day, about one month, before at the most 30 mins/day): about 55 mins/day
- Parkinson's symptoms ([5]; person, Parkinson's disease, functional food containing SBC003 about 10 mg/day, after about one week): abnormal shaking in feet improved
- symptoms of asthma ([5]; person, asthma about 20 years, about 5 mg/time for about few times): greatly improved
- asthma symptoms ([5]; person, asthma about 29 years, functional food containing SBC003 about 5 mg for one or two time): symptoms greatly improved
- facial expression / communication ([5]; person, cerebellar atrophy, functional food containing SBC003 about 10 mg/day, after about one month): started to smile
- urine volume once per day ([5]; person, chronic kidney failure, haemodialysis, no urine before, about 10 to 25 mg/day for about 1 month, after about 2 months): 10 mL
- urine total volume per day ([5]; person, chronic kidney failure, after increasing to 50-100 mg/day for about 2-3 months): about 50 ml per day
- blood glucose level ([5]; person, chronic kidney failure, on treatment, prior to the treatment 130-180 mg/dl): 70 to 105 mg/dL
- vision (patient-reported) ([5]; person, optic atrophy, blind, functional food containing SBC003 about 7 mg/day for 7 days, after about one month): brighter and better vision
- sitting time ([5]; person, spinal fractures, about 20 mg/day, about 10 days, before only 1 hour/time): up to 2 hours
- remaining lumbar pains ([5]; person, spinal fractures, functional food containing SBC003 about 20 mg/day, about 10 days): 40 % of the pains before taking SBC003
